In patent EP3727588B1, “ACTIVATOR PEPTIDES OF THE ENZYME ADAM 10 AND RELATED USES IN THE TREATMENT OF ALZHEIMER'S DISEASE” (UNIVERSITA' DEGLI STUDI DI MILANO, priority 2017, dated 2019):
Peptide text beside a SMILES is read from it.

Tested on: dendritic spines of the hippocampal neurons
Assay: dendritic spine morphology and density in hippocampus, C57BL/6 mice
Assay type: in vivo
Conditions: 14 days' treatment
Protocol: C57/BL6 adult mice were treated for 14 days with daily intraperitoneal injection of saline solution or peptides at a dose of 3 nmol/g (6-10 animals per experimental group). The animals were maintained in an enclosure at 25 ± 2 °C with an alternating light/dark cycle of 12 hours and had free access to water and food in the form of pellets (standard diet).
For the dendritic spine analysis, the protocol used is the one previously described by Kim et al, and envisages the use of DilDye lipophilic tracer (Invitrogen) to allow the dendritic spines to be viewed under the confocal microscope. The analysis of the dimensions and morphology of the spines was performed with ImageJ software.
The spines were classified, based on their morphology, into three different categories: thin, stubby (without a well-defined "neck") and mushroom shaped. To evaluate the possible effect induced by PEP3 on the spine morphology, two animals for each experimental group were perfused after 14 days of treatment and the brain was post-fixed in PFA and cut with a vibratome. To view the dendritic spines the lipophilic tracer DilDye was used. From the images acquired from the confocal microscope the number, length and width of the head of the dendritic spines of the hippocampal neurons were measured.

N=C(N)NCCC[C@H](NC(=O)CNC(=O)[C@@H](N)Cc1ccc(O)cc1)C(=O)N[C@@H](CCCCN)C(=O)N[C@@H](CCCCN)C(=O)N[C@@H](CCCNC(=N)N)C(=O)N[C@@H](CCCNC(=N)N)C(=O)N[C@@H](CCC(N)=O)C(=O)N[C@@H](CCCNC(=N)N)C(=O)N[C@@H](CCCNC(=N)N)C(=O)N[C@@H](CCCNC(=N)N)C(=O)NCC(=O)NCC(=O)N[C@@H](CO)C(=O)NCC(=O)N[C@@H](CCC(N)=O)C(=O)N1CCC[C@H]1C(=O)N1CCC[C@H]1C(=O)N[C@@H](CCCNC(=N)N)C(=O)N[C@@H](CCC(N)=O)C(=O)N[C@@H](CCCNC(=N)N)C(=O)N1CCC[C@H]1C(=O)N[C@@H](CCCNC(=N)N)C(=O)NCC(=O)O [PEP3] (H-YGRKKRRQRRRGGSGQPPRQRPRG-OH)
density of the dendritic spines: 10.30±1.11 n. of spines/10µm
length of mushroom shaped spines: 0.73±0.02
length of the spines: 0.75±0.02 µm
percentage of mushroom shaped spines: 28.83 ± 2.18%
percentage of stubby spines: 45.25 ± 2.03%
percentage of thin spines: 25.92 ± 1.68%
width of the head of spines: 0.75±0.01 µm
